In patent US20050187187A1, “Carboxyl-reduced derivatives of chondroitin sulfate, preparation thereof, use thereof as a medicinal product and the pharmaceutical compositions containing them” (Aventis Pharmas S.A., priority 2003, published 2005):

Experiments:
aggrecanase = assay: Effect on aggrecanase: conversion of recombinant substrate Agg1mut, ELISA with BC-3 antibody; assay type: biochemical; details: for % Conversion: conversion of the substrate by aggrecanase in the supernatant
Method: Effect of the carboxyl-reduced derivatives on the aggrecanase in synovial fluids or on preparations of recombinant ADAMTS protein.
The analysis is carried out on 96-well plates. Before the analysis, serial dilutions of the assay compounds are prepared in an aqueous solution.
In each well, a fixed volume of synovial fluid or aggrecanase activity generating a known increase, between 1.0 and 1.4 absorbance units (405 nm), under the conditions of the analysis, is mixed with 3 μl of solution of compound from the respective dilution step. Dulbecco's modified Eagle's medium (DMEM) is added to each well to give a final volume of 300 μl. The plate is then incubated for 1 hour at 37° C. in a carbon dioxide atmosphere.
After the addition of 5 μl of a solution of 1 μg/μl of recombinant substrate Agglmut in DMEM to each well (substrate as described by Bartnik E. et al., EP 785274, 1997), the reagent mixture is incubated for 4 hours at 37° C. under a carbon dioxide atmosphere.
In a first step, the microplate is coated with 100 μl per well of a commercial goat anti-mouse IgG antibody for 1 hour at ambient temperature (5 μg/ml in a phosphate buffered saline solution, pH 7.4 [PBS buffer]). After washing with the PBS buffer containing 0.1% of Tween-20 (washing buffer), the wells are blocked by means of a step consisting of a one hour incubation with 100 μl per well of 5% bovine serum albumin in a PBS buffer containing 0.05% of Tween-20. Following another rinse with the washing buffer, each well is incubated with 100 μl of a solution, diluted to 1:1000, of BC-3 antibody in a PBS buffer containing 0.05% of Tween 20 and 0.5% of bovine serum albumin, at ambient temperature for one hour. This antibody recognizes the typical aggrecanase cleavage fragments (Hughes C. E. et al., Biochem. J. 305 (3), 799-804, 1995).
After another rinse of the analytical plate with the washing buffer, the complete set of mixtures originating from the preceding digestion is transferred to this plate, well by well, and incubated at ambient temperature for one hour. The plate is again washed as above. Next, 100 μl of the second antibody (anti-human IgG antibody labeled with peroxidase, 1:1000 in PBS containing 0.5% of BSA and 0.05% of Tween-20) are added to each well, with subsequent incubation at ambient temperature again for one hour. After a final rinse with the washing buffer, the color development is initiated by adding 100 μl of ABTS substrate solution (2 mg/ml, 2,2′-azinobis (3-ethylbenzothiazolinesulfonic acid) in 40 mM of sodium citrate plus 60 mM of disodium hydrogen phosphate, adjusted to a pH of 4.4 by adding acetic acid; 0.25 μl of 35% hydrogen peroxide added per ml immediately before measurement). The measurement is carried out by means of the screen mode using detection at 405 nm relative to a reference filter (620 nm) with automatic readings at 5-second intervals. The development is stopped as soon as the maximum signal (405 nm) in the absorbance range of 1.0 to 1.4 is reached.
% inhibition of conversion of the substrate by activity of the aggrecanase in the supernatant.

bovine factor Xa [1] = molecular target: T1, bovine factor Xa (Bos taurus, UniProt P00743); assay: Inhibition of factor Xa, chromogenic substrate S-2765 with human antithrombin III; assay type: biochemical; details: calibrated against Enoxaparin standard
T1 sequence (P01008 33-464 partner): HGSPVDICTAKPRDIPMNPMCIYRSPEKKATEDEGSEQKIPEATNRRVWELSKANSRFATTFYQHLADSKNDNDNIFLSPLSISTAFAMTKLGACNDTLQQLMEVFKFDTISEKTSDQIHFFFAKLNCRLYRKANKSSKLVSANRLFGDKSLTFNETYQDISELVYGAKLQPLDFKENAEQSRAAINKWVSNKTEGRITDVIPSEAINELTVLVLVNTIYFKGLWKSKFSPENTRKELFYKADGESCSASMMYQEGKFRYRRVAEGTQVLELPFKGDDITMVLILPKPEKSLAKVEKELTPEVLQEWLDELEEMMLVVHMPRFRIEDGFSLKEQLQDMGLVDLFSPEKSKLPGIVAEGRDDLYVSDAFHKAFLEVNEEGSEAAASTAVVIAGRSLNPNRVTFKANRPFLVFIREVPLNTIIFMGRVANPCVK
T1 sequence (P00743 234-492 limits assumed): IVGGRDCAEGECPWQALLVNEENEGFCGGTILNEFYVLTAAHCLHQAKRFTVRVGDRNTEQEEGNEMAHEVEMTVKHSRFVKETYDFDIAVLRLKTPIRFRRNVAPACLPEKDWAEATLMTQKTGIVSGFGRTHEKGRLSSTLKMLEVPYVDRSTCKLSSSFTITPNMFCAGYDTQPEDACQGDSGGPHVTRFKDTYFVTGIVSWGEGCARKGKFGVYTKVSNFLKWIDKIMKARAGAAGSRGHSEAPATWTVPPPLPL
Method: For the calibration, a standard sample of low molecular weight heparin (Enoxaparin) was used as reference.
The serial dilutions of the assay compound are prepared in a 0.046 M Tris buffer, pH 8.4, containing 0.15 M NaCl, 0.007 M EDTA, 0.1% of Tween 80 and 0.12 IU/ml of human antithrombin III. The samples of 50 μl of the respective dilutions are incubated with 50 μl of bovine factor Xa (13.6 U/ml) at 37° C. for 80 seconds. Next, 50 μl of chromogenic substrate, 1.1 mM S-2765, are added. The absorbance at 405 nm is measured in a photometer. The activity of the deblocked factor Xa is indicated by the emission of p-nitroaniline from the substrate.
Compared to the reference heparin compound (100 U/mg), the glycosamonoglycans present a factor Xa, with much lower inhibitory activity: […]

MMP-2 (gelatinase-A) = molecular target: T2, MMP-2 (gelatinase-A) (Homo sapiens, UniProt P08253); assay: MMP-2 inhibitory activity, commercial ELISA kit; assay type: biochemical; details: MMP-2 800 ng/ml; dilution series in PBS buffer, pH 7.5; in words
T2 construct: purchased Amersham Biosciences RPN2617
T2 sequence (P08253 110-660): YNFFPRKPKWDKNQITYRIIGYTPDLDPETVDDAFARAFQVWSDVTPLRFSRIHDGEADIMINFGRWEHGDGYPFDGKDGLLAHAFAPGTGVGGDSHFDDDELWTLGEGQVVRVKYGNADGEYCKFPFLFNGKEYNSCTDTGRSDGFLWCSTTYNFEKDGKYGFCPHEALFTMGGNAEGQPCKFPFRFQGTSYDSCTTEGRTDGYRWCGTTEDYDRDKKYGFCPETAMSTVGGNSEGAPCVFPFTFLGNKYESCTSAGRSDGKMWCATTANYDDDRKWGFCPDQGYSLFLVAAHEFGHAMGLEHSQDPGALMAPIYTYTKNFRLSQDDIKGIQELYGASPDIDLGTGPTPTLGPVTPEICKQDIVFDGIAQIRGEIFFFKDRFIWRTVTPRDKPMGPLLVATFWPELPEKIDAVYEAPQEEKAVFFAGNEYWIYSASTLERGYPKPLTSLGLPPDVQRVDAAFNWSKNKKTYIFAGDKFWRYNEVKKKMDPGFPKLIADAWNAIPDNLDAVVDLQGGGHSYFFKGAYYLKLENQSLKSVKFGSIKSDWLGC
Method: Effect of the Carboxyl-Reduced Persulfate Derivative (Example 1) for Human Metalloproteases MMP-2 (gelatinase-A) and MMP7
Commercial ELISA kits (such as those provided, for example, by the company Amersham Biosciences, kits RPN2617 and RPN2620) were used, respectively, to determine the inhibitory activity with respect to the MMP-2 and MMP-7 enzymes. The concentrations of the enzymes are, respectively, 800 ng/ml for MMP-2. The tests were carried out in accordance with the manufacturer's recommendations, by performing a series of dilutions of the compound to be studied in a PBS buffer, pH 7.5.

bovine factor Xa [2] = molecular target: T1, bovine factor Xa; details: standard sample used for calibration; cited from earlier work

Substance | estimated IC50 (aggrecanase; aggrecanase, estimated) | % Conversion (aggrecanase; glycosaminoglycan 0.0001 μg/ml) | % Conversion (aggrecanase; glycosaminoglycan 0.0003 μg/ml) | % Conversion (aggrecanase; glycosaminoglycan 0.001 μg/ml) | % Conversion (aggrecanase; glycosaminoglycan 0.003 μg/ml) | % Conversion (aggrecanase; glycosaminoglycan 0.01 μg/ml) | % Conversion (aggrecanase; glycosaminoglycan 0.03 μg/ml) | factor Xa inhibitory activity (bovine factor Xa [1]) | inhibition of MMP-2 (MMP-2 (gelatinase-A)) | factor Xa inhibitory activity of the reference standard (bovine factor Xa [2])
Carboxyl-Reduced and Persulfated Chondroitin Sulfate Sodium Salt [Example 1] | ~4 ng/mL | 100% | 99.0% | 95.1% | 69.2% | 11.6% | 14.9% | 1.2 U/mg | inhibited in a concentration-dependent manner | 
Enoxaparin [reference heparin compound] |  |  |  |  |  |  |  |  |  | 100 U/mg
